Test results: patent publication US11279714B2, “Anti-infective compounds” (priority 2014, dated 2022)
Values after ≈ are worked out from the molar mass of the structure shown.

Experiments:
[1] = test system: Raw 264.7 cells infected with H37Rv-GFP; assay: microbe, parasite or virus in culture; format: cell-based, M. tuberculosis; conditions: for MIC50: Mycobacterium tuberculosis, H37RV, 120 h, read-out: QIM (MIC50)
[2] = test system: M. tuberculosis H37Rv expressing the green fluorescent protein (H37Rv-GFP); assay: microbe, parasite or virus in culture; format: cell-based; conditions: for MIC50: Mycobacterium tuberculosis, H37RV, 120 h, read-out: QUM (MIC50)

Compound: Cc1ccc(-c2ccc(NC(=O)c3cc4sc(N5CCC(C(=O)N(C)C)CC5)nc4s3)cc2)nc1.Cl [Compound 258]
- QIM (MIC50, uM) [1]: +++ (+++ indicates <1 uM)
- QUM (MIC50, uM) [2]: ++ (++ indicates between 1-20 uM)

Compound: Cc1nc2cc(NC(=O)c3cc4sc(N5CCC(NC(=O)CC(C)(C)C)CC5)nc4s3)ccc2o1 [Compound 305]
- MIC50 [1]: < 1 µM
- MIC50 [2]: > 20 µM

Compound: COc1ccc(NC(=O)c2cc3nc(N4CCOCC4)sc3s2)cc1 [Compound 27]
- MIC50 [1]: 1 to 20 µM (≈ 0.375 to 7.51 µg/mL)
- MIC50 [2]: > 20 µM

Compound: CN(CC(O)C(F)(F)F)c1nc2sc(C(=O)Nc3ccc(-c4ccc(F)cn4)cc3)cc2s1 (stereo not drawn) [Compound 317]
- MIC50 [1]: < 1 µM
- MIC50 [2]: 1 to 20 µM (≈ 0.497 to 9.93 µg/mL)

Compound: COc1ccc(-c2ccc(NC(=O)c3cc4sc(N5CCC(C(=O)N(C)C)CC5)nc4s3)cc2)cn1 [Compound 213]
- MIC50 [1]: < 1 µM
- MIC50 [2]: < 1 µM

Compound: O=C(Nc1ccc(F)cc1)c1cc2sc(N3CCC(C(O)c4ccc(Cl)cc4)CC3)nc2s1 (stereo not drawn) [Compound 247]
- MIC50 [1]: < 1 µM
- MIC50 [2]: 1 to 20 µM (≈ 0.502 to 10 µg/mL)

Compound: CN(CCO)c1nc2sc(C(=O)Nc3ccc(N4CCC(Oc5ccc(F)cc5)CC4)cc3)cc2s1 [Compound 250]
- MIC50 [1]: < 1 µM
- MIC50 [2]: > 20 µM

Compound: COCCN(c1nc2sc(C(=O)Nc3ccc4oc(C)nc4c3)cc2s1)C(C)C [Compound 242]
- MIC50 [1]: < 1 µM
- MIC50 [2]: 1 to 20 µM (≈ 0.431 to 8.61 µg/mL)

Compound: O=C(Nc1ccc(F)cc1)c1cc2sc(N3CCC(COc4ccc(Cl)cc4)CC3)nc2s1 [Compound 245]
- MIC50 [1]: < 1 µM
- MIC50 [2]: 1 to 20 µM (≈ 0.502 to 10 µg/mL)

Compound: O=C(Nc1ccc(-c2ccc(F)nc2)cc1)c1cc2sc(N3CCNCC3)nc2s1 [Compound 289]
- MIC50 [1]: < 1 µM
- MIC50 [2]: 1 to 20 µM (≈ 0.44 to 8.79 µg/mL)

Compound: CN(C)C(=O)CC1CCN(c2nc3sc(C(=O)Nc4ccc(-c5ccc(F)nc5)cc4)cc3s2)C1 (stereo not drawn) [Compound 350]
- MIC50 [1]: < 1 µM
- MIC50 [2]: < 1 µM

Compound: Cc1nc2cc(NC(=O)c3cc4sc(N5CCN(C(=O)N(C)C)CC5)nc4s3)ccc2o1 [Compound 237]
- MIC50 [1]: < 1 µM
- MIC50 [2]: < 1 µM

Compound: COc1ccc(NC(=O)c2cc3sc(N4CCC(CO)CC4)nc3s2)cc1 [Compound 120]
- MIC50 [1]: < 1 µM
- MIC50 [2]: < 1 µM

Compound: CN(C)c1nc2sc(C(=O)Nc3ccc4oc(-c5ccc(F)cc5)nc4c3)cc2s1 [Compound 210]
- MIC50 [1]: > 20 µM
- MIC50 [2]: > 20 µM

Compound: Cc1ccc(-c2ccc(NC(=O)c3cc4sc(N5CCC(C(=O)N(C)C)CC5)nc4s3)cc2)nc1 [Compound 217]
- MIC50 [1]: < 1 µM
- MIC50 [2]: 1 to 20 µM (≈ 0.506 to 10.1 µg/mL)

Compound: O=C(Nc1ccc(F)cn1)c1cc2sc(NCCN3CCOCC3)nc2s1 [Compound 335]
- MIC50 [1]: 1 to 20 µM (≈ 0.407 to 8.15 µg/mL)
- MIC50 [2]: 1 to 20 µM (≈ 0.407 to 8.15 µg/mL)

Compound: COc1ccc(NC(=O)c2cc3sc(N4CCC(C(=O)O)CC4)nc3s2)cc1 [Compound 149]
- MIC50 [1]: 1 to 20 µM (≈ 0.418 to 8.35 µg/mL)
- MIC50 [2]: 1 to 20 µM (≈ 0.418 to 8.35 µg/mL)

Compound: CN(CCO)c1nc2sc(C(=O)Nc3ccc(-c4ccc(F)nc4)cc3)cc2s1 [Compound 272]
- MIC50 [1]: < 1 µM
- MIC50 [2]: < 1 µM

Compound: COCCN(C)c1nc2sc(C(=O)Nc3ccc(-c4ccc(OC)nc4)cc3)cc2s1 [Compound 265]
- MIC50 [1]: < 1 µM
- MIC50 [2]: < 1 µM

Compound: Cc1nnc(-c2ccc(NC(=O)c3cc4sc(N5CCC(C(=O)N(C)C)CC5)nc4s3)cc2)o1 [Compound 184]
- MIC50 [1]: > 20 µM
- MIC50 [2]: > 20 µM

Compound: Cc1nc2cc(NC(=O)c3cc4sc(NCCOc5ccc(Cl)cc5)nc4s3)ccc2o1 [Compound 290]
- MIC50 [1]: < 1 µM
- MIC50 [2]: > 20 µM

Compound: COc1ccc(NC(=O)c2cc3sc(N4CCC(O)C4)nc3s2)cc1 (stereo not drawn) [Compound 130]
- MIC50 [1]: < 1 µM
- MIC50 [2]: 1 to 20 µM (≈ 0.375 to 7.51 µg/mL)

Compound: Cc1nc2cc(NC(=O)c3cc4sc(N5CC[C@@H](C(=O)N(C)C)C5)nc4s3)ccc2o1 [Compound 223]
- MIC50 [1]: 1 to 20 µM (≈ 0.456 to 9.11 µg/mL)
- MIC50 [2]: 1 to 20 µM (≈ 0.456 to 9.11 µg/mL)

Compound: Cc1nc2cc(NC(=O)c3cc4sc(N5CCC(Oc6ccc(Cl)cc6)CC5)nc4s3)ccc2o1 [Compound 207]
- MIC50 [1]: < 1 µM
- MIC50 [2]: 1 to 20 µM (≈ 0.525 to 10.5 µg/mL)

Compound: Cc1nc2cc(NC(=O)c3cc4sc(N(C)CCN5CCOCC5)nc4s3)ccc2o1 [Compound 225]
- MIC50 [1]: < 1 µM
- MIC50 [2]: 1 to 20 µM (≈ 0.458 to 9.15 µg/mL)

Compound: COc1ccc(NC(=O)c2cc3sc(N4CCC(O)CC4)nc3s2)cc1 [Compound 76]
- MIC50 [1]: < 1 µM
- MIC50 [2]: < 1 µM

Compound: COc1ccc(CN2CCN(c3nc4sc(C(=O)Nc5ccc(OC)cc5)cc4s3)CC2)cc1 [Compound 91]
- MIC50 [1]: < 1 µM
- MIC50 [2]: > 20 µM

Compound: Cc1nc2cc(NC(=O)c3cc4sc(N5CCC(CC(=O)N(C)C)C5)nc4s3)ccc2o1 (stereo not drawn) [Compound 308]
- MIC50 [1]: < 1 µM
- MIC50 [2]: < 1 µM

Compound: CN1CCN(CCNc2nc3sc(C(=O)Nc4ccc(-c5ccc(F)cn5)cc4)cc3s2)CC1 [Compound 325]
- MIC50 [1]: < 1 µM
- MIC50 [2]: 1 to 20 µM (≈ 0.497 to 9.93 µg/mL)

Compound: O=C(Nc1ccc(F)cc1)c1cc2sc(NC3CCNCC3)nc2s1 [Compound 312]
- MIC50 [1]: > 20 µM
- MIC50 [2]: > 20 µM

Compound: CCCC(=O)Nc1nc2sc(C(=O)Nc3ccc4oc(C)nc4c3)cc2s1 [Compound 243]
- MIC50 [1]: < 1 µM
- MIC50 [2]: > 20 µM

Compound: Cc1nc2cc(NC(=O)c3cc4ccc(N5CCOCC5)nc4s3)ccc2o1 [Compound 176]
- MIC50 [1]: > 20 µM
- MIC50 [2]: > 20 µM

Compound: O=C(Nc1ccc(F)cc1)c1cc2sc(NCCCN3CCOCC3)nc2s1 [Compound 327]
- MIC50 [1]: 1 to 20 µM (≈ 0.421 to 8.41 µg/mL)
- MIC50 [2]: 1 to 20 µM (≈ 0.421 to 8.41 µg/mL)
